In US12590063B2, “Phenol derivative” (Sumitomo Pharma Co., Ltd., priority 2020, dated 2026):
Where two headings read alike, the source gives them in different places.

Experiments:
[1] = target: T1, Human TRPV1 (Homo sapiens, UniProt Q8NER1); test: Evaluation of agonistic properties using human TRPV1 transiently expressing cells; type: cell-based
T1 construct: the TRPV1 gene (GenBank NP_542435.2) had been inserted; expressed in transfected cells; host or cells: HEK293 cells (cat #CCL-82.2, ATCC), transient transfection with pcDNA3.1
T1 sequence (Q8NER1 whole entry): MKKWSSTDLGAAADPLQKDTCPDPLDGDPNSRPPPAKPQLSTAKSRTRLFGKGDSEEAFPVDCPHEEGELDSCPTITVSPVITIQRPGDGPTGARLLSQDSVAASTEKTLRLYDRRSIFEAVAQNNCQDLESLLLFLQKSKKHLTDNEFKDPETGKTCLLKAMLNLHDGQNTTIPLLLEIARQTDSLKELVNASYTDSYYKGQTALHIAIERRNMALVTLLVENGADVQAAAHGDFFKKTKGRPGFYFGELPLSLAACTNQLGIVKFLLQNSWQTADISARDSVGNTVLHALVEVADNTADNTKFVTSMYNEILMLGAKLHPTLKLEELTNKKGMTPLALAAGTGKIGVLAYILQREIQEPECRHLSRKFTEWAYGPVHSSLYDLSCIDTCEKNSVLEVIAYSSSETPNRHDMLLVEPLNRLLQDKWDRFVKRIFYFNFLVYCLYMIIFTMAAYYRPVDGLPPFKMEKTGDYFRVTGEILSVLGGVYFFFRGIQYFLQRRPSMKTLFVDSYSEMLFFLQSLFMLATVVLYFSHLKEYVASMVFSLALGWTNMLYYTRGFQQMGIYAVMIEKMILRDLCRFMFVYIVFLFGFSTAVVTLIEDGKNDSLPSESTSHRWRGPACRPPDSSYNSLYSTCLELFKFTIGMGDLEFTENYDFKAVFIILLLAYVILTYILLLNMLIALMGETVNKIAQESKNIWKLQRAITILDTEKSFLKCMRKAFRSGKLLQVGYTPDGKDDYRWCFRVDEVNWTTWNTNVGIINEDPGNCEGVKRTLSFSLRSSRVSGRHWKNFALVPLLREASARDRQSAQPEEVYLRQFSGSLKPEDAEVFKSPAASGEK
From the text: Test Example 1: Evaluation of Agonistic Properties Using Human TRPV1 Transiently Expressing Cells
(1) Generation of Human TRPV1 Transiently Expressing Cells
Human TRPV1 transiently expressing cells were generated and subjected to culture. Specifically, HEK293 cells (cat #CCL-82.2, ATCC) were used as host cells. Human TRPV1 and apoaequorin were transiently expressed by introducing the mammalian cell expression pcDNA3.1 vector (cat #v790-20, Invitrogen) into which the TRPV1 gene (GenBank NP_542435.2) had been inserted.
The Dulbecco's Modified Eagle's Medium (DMEM) medium (cat #11550-043, Thermo Fisher Scientific) containing 10% inactivated fetal bovine serum (cat #10270-106, Thermo Fisher Scientific) was used as the medium, and the culture was carried out in tissue culture dishes (cat #3020-100, Iwaki). During the culture, cells were collected every 2 to 3 days by treating with PBS containing 10% 2.5 g/1-trypsin/[…] solution, phenol red (cat #32777-44, Nacalai Tesque), and passage culture was carried out.
Three days after the passage, cells were collected with 10% trypsin-PBS treatment at a state of about 80% confluency, suspended in a DMEM medium containing 10% fetal bovine serum to 4000 cells/35 μl/well, and seeded into 384-well plates (cat #353962, FALCON).
The day after seeding, Viviren (cat #E6492, Promega) was added (15 μl/well) to a final concentration of 4.5 μM/HBSS (cat #14065-056, Thermo Fisher Scientific)/90 mM HEPES (cat #17514-15, Nacalai Tesque)/0.1% BSA (cat #01281-84, Nacalai Tesque), and after centrifugation, the samples were allowed to stand at room temperature for 2 hours under light-shielded conditions.
(2) Preparation of Test Compounds
For the test compounds, dimethyl sulfoxide solutions were produced at a concentration 1000 times the final concentration, and from these solutions, solutions at concentration 10 times the final concentration were prepared with Hanks/20 mmol/L HEPES/0.10% BSA (cat #01281-84, Nacalai Tesque).
(3) Evaluation of TRPV1-Agonistic Properties
FDSS7000 (Hamamatsu Photonics K.K.) was used for detection of TRPV1 agonist-stimulated luminescence signals. The test compounds were added to plates to which the cells and luminescent substrates had been added. The luminescence signals (center wavelength: 465 nm) after addition of the test compounds were measured, and the Rlu (Max−Min) was calculated.

[2] = Evaluation test for metabolic stability to S9; type: in vitro ADME; settings: liver S9 fraction, 37° C., 15 minutes, final compound concentration 10 nM
Procedure: Test Example 4: Evaluation Test for Metabolic Stability to S9
The compounds were added to a reaction solution in which the liver S9 fraction was diluted with phosphate buffer, and incubation was initiated at 37° C. (final compound concentration 10 nM, final volume 300 μL). After incubation for 15 minutes, the reaction was stopped by adding the reaction solution to acetonitrile, and centrifugation was carried out. After filtering the supernatant through a filter, the amount of compounds was determined using LC/MS/MS. From the amount of compounds obtained, the residual rate 15 minutes after the initiation of the reaction was calculated relative to the amount of compounds before the initiation of the reaction (0 minutes).

[3] = HEK293 cells transiently expressing human TRPV1 and apoaequorin, luminescence signal Rlu (Max-Min), read-out: TRPV1 EC50

SMILES | EC50 [1, 3] | Residual rate (%) [2] | EC50 [1]
COc1cc(CC(=O)Nc2cccc(-c3ccc(OC(=O)c4ccccc4)cc3)c2)ccc1O [Example 3, 3′-[2-(4-hydroxy-3-methoxyphenyl)acetamido][1,1′-biphenyl]-4-yl benzoate] | 341 nM | <1% | 
COc1cc(CC(=O)Nc2cccc(-c3ccc(OC(=O)C(C)C)cc3)c2)ccc1O [Example 4, 3′-[2-(4-hydroxy-3-methoxyphenyl)acetamido][1,1′-biphenyl]-4-yl 2-methylpropanoate] | 33.6 nM | <1% | 
COc1cc(CC(=O)Nc2cccc([C@H]3CC[C@@H](OC(=O)CC4CCCCC4)CC3)c2)ccc1O [Example 5, cis-4-{3-[2-(4-hydroxy-3-methoxyphenyl)acetamido]phenyl}cyclohexyl cyclohexylacetate] | 61.2 nM | 90% | 
COc1cc(CC(=O)Nc2cccc([C@H]3CC[C@@H](OC(=O)COc4ccccc4)CC3)c2)ccc1O [Example 6, cis-4-{3-[2-(4-hydroxy-3-methoxyphenyl)acetamido]phenyl}cyclohexyl phenoxyacetate] | 5.3 nM | 1% | 
COc1cc(CC(=O)Nc2cccc([C@H]3CC[C@@H](OC(=O)Cc4cc(F)cc(F)c4)CC3)c2)ccc1O [Example 7, cis-4-{3-[2-(4-hydroxy-3-methoxyphenyl)acetamido]phenyl}cyclohexyl (3,5-difluorophenyl)acetate] | 5.6 nM | 100% | 
COc1cc(CC(=O)Nc2cccc([C@H]3CC[C@@H](OC(=O)Cc4ccc(F)cc4)CC3)c2)ccc1O [Example 8, cis-4-{3-[2-(4-hydroxy-3-methoxyphenyl)acetamido]phenyl}cyclohexyl (4-fluorophenyl)acetate] | 6.1 nM | 89% | 
COc1cc(CC(=O)Nc2cccc([C@H]3CC[C@@H](OC(=O)Cc4cccc(C)c4)CC3)c2)ccc1O [Example 9, cis-4-{3-[2-(4-hydroxy-3-methoxyphenyl)acetamido]phenyl}cyclohexyl (3-methylphenyl)acetate] | 2 nM | 88% | 
COc1cc(CC(=O)Nc2cccc([C@H]3CC[C@@H](OC(=O)Cc4ccccc4Cl)CC3)c2)ccc1O [Example 10, cis-4-{3-[2-(4-hydroxy-3-methoxyphenyl)acetamido]phenyl}cyclohexyl (2-chlorophenyl)acetate] | 4.8 nM | 67% | 
COc1cc(CC(=O)Nc2cccc([C@H]3CC[C@@H](OC(=O)CC4CCOCC4)CC3)c2)ccc1O [Example 11, cis-4-{3-[2-(4-hydroxy-3-methoxyphenyl)acetamido]phenyl}cyclohexyl (oxa-4-yl)acetate] | 21.3 nM | 91% | 
COc1cc(CC(=O)Nc2cccc([C@H]3CC[C@@H](OC(=O)Cc4cccs4)CC3)c2)ccc1O [Example 13, cis-4-{3-[2-(4-hydroxy-3-methoxyphenyl)acetamido]phenyl}cyclohexyl (thiophen-2-yl)acetate] | 9 nM | 89% | 
COc1cc(CC(=O)Nc2cccc([C@H]3CC[C@@H](OC(=O)Cc4ccccc4)CC3)c2)ccc1O [Example 35, cis-4-{3-[2-(4-hydroxy-3-methoxyphenyl)acetamido]phenyl}cyclohexyl phenylacetate] |  |  | 8.2 nM
COc1cc(CC(=O)Nc2cccc([C@H]3CC[C@H](OC(=O)Cc4ccccc4)CC3)c2)ccc1O [Example 36, trans-4-{3-[2-(4-hydroxy-3-methoxyphenyl)acetamido]phenyl}cyclohexyl phenylacetate] |  |  | 57.5 nM
COc1cc(CC(=O)Nc2cccc([C@H]3CC[C@H](OC(=O)C4CCCCC4)CC3)c2)ccc1O [Example 37, trans-4-{3-[2-(4-hydroxy-3-methoxyphenyl)acetamido]phenyl}cyclohexyl cyclohexanecarboxylate] | 73.1 nM |  | 
COc1cc(CC(=O)Nc2cccc([C@H]3CC[C@H](OC(C)=O)CC3)c2)ccc1O [Example 38, trans-4-{3-[2-(4-hydroxy-3-methoxyphenyl)acetamido]phenyl}cyclohexyl acetate] | 18.9 nM |  | 
COc1cc(CC(=O)Nc2cccc([C@H]3CC[C@@H](OC(C)=O)CC3)c2)ccc1OC(C)=O [Example 39, 4-(2-{3-[(cis)-4-(acetyloxy)cyclohexyl]anilino}-2-oxoethyl)-2-methoxyphenyl acetate] | 282 nM |  | 
COc1cc(CC(=O)Nc2cccc([C@H]3CC[C@H](OC(C)=O)CC3)c2)ccc1OC(C)=O [Example 40, 4-(2-{3-[(trans)-4-(acetyloxy)cyclohexyl]anilino}-2-oxoethyl)-2-methoxyphenyl acetate] | 480 nM |  | 
COc1cc(CC(=O)Nc2ccnc([C@H]3CC[C@@H](OC(C)=O)CC3)c2)ccc1O [Example 41, cis-4-{4-[2-(4-hydroxy-3-methoxyphenyl)acetamido]pyridin-2-yl}cyclohexyl acetate] | 95.1 nM |  | 
COc1cc(CNC(=O)c2cccc([C@H]3CC[C@@H](OC(C)=O)CC3)c2)ccc1O [Example 42, cis-4-(3-{[(4-hydroxy-3-methoxyphenyl)methyl]carbamoyl}phenyl)cyclohexyl acetate] | 83.1 nM |  | 
COc1cc(CC(=O)Nc2ccnc([C@H]3CC[C@@H](OC(C)=O)CC3)c2)ccc1OC(C)=O [Example 43, 4-[2-({2-[(cis)-4-(acetyloxy)cyclohexyl]pyridin-4-yl}amino)-2-oxoethyl]-2-methoxyphenyl acetate] | 3080 nM |  | 
COc1cc(CC(=O)Nc2cccc([C@H]3CC[C@H](OC(=O)C(C)C)CC3)c2)ccc1O [Example 48, trans-4-{3-[2-(4-hydroxy-3-methoxyphenyl)acetamido]phenyl}cyclohexyl 2-methylpropanoate] | 32.1 nM |  | 
COc1cc(CC(=O)Nc2cccc([C@H]3CC[C@@H](O)CC3)c2)ccc1O [Reference Example 9, N-{3-[(cis)-4-Hydroxycyclohexyl]phenyl}-2-(4-hydroxy-3-methoxyphenyl)acetamide] | 2690 nM |  | 
COc1cc(CC(=O)Nc2cccc([C@H]3CC[C@H](O)CC3)c2)ccc1O [Reference Example 10, N-{3-[(trans)-4-Hydroxycyclohexyl]phenyl}-2-(4-hydroxy-3-methoxyphenyl)acetamide] | 8060 nM |  | 
COc1cc(CNC(=O)c2cccc(-c3cccc(O)c3)c2)ccc1O [Reference Example 12, 3′-Hydroxy-N-[(4-hydroxy-3-methoxyphenyl)methyl][1,1′-biphenyl]-3-carboxamide] | 3290 nM |  | 
COc1cc(CNC(=O)c2ccnc(-c3cccc(O)c3)c2)ccc1O [Reference Example 18] | 6110 nM |  | 
COc1cc(CC(=O)Nc2cccc(-c3ccc(O)cc3)c2)ccc1O [compound 13] | 606 nM |  | 
COc1cc(CC(=O)Nc2cccc(-c3cccc(O)c3)c2)ccc1O [compound 14] | 1650 nM |  | 
COc1cc(CC(=O)Nc2ccnc(-c3cccc(O)c3)c2)ccc1O [compound 15] | 4560 nM |  | 
COc1cc(CC(=O)Nc2cccc(-c3cccc(O)c3)n2)ccc1O [compound 16] | 1010 nM |  | 
COc1cc(CC(=O)Nc2ccc(F)c(-c3cccc(O)c3)c2)ccc1O [compound 17] | 7020 nM |  | 
COc1cc(CNC(=O)c2cccc(-c3cccc(O)c3)n2)ccc1O [compound 19] | 2720 nM |  | 
